Measurements reported in US20250114377A1, “TWO-PRONGED TREATMENT FOR NIEMANN PICK TYPE C DISEASE” (UNIVERSITY OF NOTRE DAME DU LAC, priority 2022, published 2025).

What was measured:
[1] = test system: LE/L membrane tubule projection, COS-7 cells; test: LE/L tubule projection of NPC1-containing membranes with microtubule drugs; format: cell-based; conditions: FP-tagged NPC1 membranes, live-cell imaging
Description: Although it is well-accepted that mutations in NPC1 are responsible for ˜95% of human cases of NPC disease, there is less consensus on the specific cellular activities NPC1 is responsible for. For example, both the N-terminal domain and the sterol-sensing domain of NPC1 are thought to bind cholesterol and mediate the movement of lumenal cholesterol across the limiting membrane of LE/Ls. However, the lipids that over-accumulate in NPC disease are not limited to cholesterol and include oxysterols, sphingolipids, gangliosides and GPI-anchored proteins. Furthermore, the pathological accumulations of cholesterol have been proposed to affect the functional state of LE/Ls directly, including perturbing calcium uptake, autophagy/mitophagy and the thickness of the glycocalyx. However, the specific ways in which NPC1 mutations affect these parameters remain unclear. With this wide range of unknowns in mind, we generated a FP-tagged NPC1 plasmid construct for expression in mammalian cells. […] Also overlapping with previous observations, LE/L membranes incorporating FP-tagged NPC1 projected a population of long, slender, dynamic membrane tubules that emerged from the surface of stationary LE/Ls and extended towards the cell periphery (See Sterling, FIG. 1A and Sup Vid. 1). […]

lysosomal tubulation = test: Rescue of lysosomal tubulation with purified oxysterols in LDL-depleted media (FIG. 4); format: cell-based; conditions: media depleted of LDL supplemented with the oxysterol; 24-HC p<0.005, 25-HC p<0.0001
Experimental: FIG. 4. Rescue of Lysosomal Tubulation with Purified Oxysterols. Measurements of lysosomal tubulation comparing control complete media (Control) to media depleted of LDL (LDL−) and depleted media supplemented with 27-hydroxycholesterol (27-HC), 24-hydroxycholesterol (24-HC) or 25-hydroxycholesterol (25-HC).
Fixed and live-cell imaging was performed on COS-7 cells grown in Dulbecco's Modified Eagle's Medium (DMEM) supplemented with 10% fetal bovine serum, 1% L-glutamine, and penicillin/streptomycin (Sigma-Aldrich). Transfections were performed using either Lipofectamine (Life Technologies), X-treme Gene DNA Transfection reagent (Roche, Indianapolis, IN) or Nanofect (Allstem, Richmond, CA). J774A.1 mouse macrophages were provided and cultured in the same media. Cells were tested for contamination using PCR-based test kits (Sartorius, Inc.; Cat #SMB95-1001).
Microscopy experiments were performed on a Zeiss Axiovert 200M (Thornwood, NY) run by Metamorph software (Sunnyvale, CA). Fixed and live cell imaging data was collected using either a Photometrics Coolsnap HQ or Cascade 1k CCD camera (Tucson, AZ). Timelapse imaging of cells expressing NPC1-EGFP and mCherry-StARD9 utilized a Dual-view camera (Photometrics) adapter to allow simultaneous acquisition of green and red channels at each timepoint. Kymographs were generated in Metamorph using a 1p m slice from each frame.
To test this idea, we treated either NPC1 mutant (null or I1061T) or StARD9 mutant (null or truncation mutant) cells with 27-HC in a cocktail that delivers it into the cytoplasm independent of receptor-mediated endocytosis. […] Next, we treated NPC1(−/−) mice with 27-HC by i.p. delivery.

Structure (SMILES)	Effect on LE/L tubule projection [1]	Rescue of lysosomal tubulation compared with 27-HC (lysosomal tubulation)
CC(=O)O[C@H]1C(=O)[C@@]2(C)[C@H]([C@H](OC(=O)c3ccccc3)[C@]3(O)C[C@H](OC(=O)[C@H](O)[C@@H](NC(=O)c4ccccc4)c4ccccc4)C(C)=C1C3(C)C)[C@]1(OC(C)=O)CO[C@@H]1C[C@@H]2O [taxol]	inhibited	–
COC(=O)Nc1nc2ccc(C(=O)c3cccs3)cc2[nH]1 [nocodazole]	inhibited	–
C[C@H](CCCC(C)(C)O)[C@H]1CC[C@H]2[C@@H]3CC=C4C[C@@H](O)CC[C@]4(C)[C@H]3CC[C@]12C [25-HC, 25-hydroxycholesterol]	–	significantly lower that 27-HC
CC(C)C(O)CC[C@@H](C)[C@H]1CC[C@H]2[C@@H]3CC=C4C[C@@H](O)CC[C@]4(C)[C@H]3CC[C@]12C (stereo partly shown) [24-HC, 24-hydroxycholesterol]	–	significantly lower that 27-HC
